Experimental data from patent US20200030355A1, “COMBINATION THERAPY FOR TREATING CANCER” (Epizyme, Inc., priority 2014, published 2020).
Entries after “also recorded” stand apart in the source; their conditions may differ. Like-named read-outs stand apart in the source and are kept apart here.

What was measured:
[1] = tested on: MOLM-13 cells; assay: Apoptosis by Annexin V flow cytometry (Guava Nexin); type: cell-based, human
Protocol: (§1) A Guava EasyCyte HT™ flow cytometer was used to measure DNA content, Annexin V staining and cell surface expression of CD14 and CD11b markers on Days 10 and 14.
(§2) On Day 0 MOLM-13 cells are seeded at 3,000 cells/mL. On Day 7 and Day 10 MOLM-13 cells are counted and reseeded at 50,000 cells/mL. […] On Day 10 They were redosed again. On Day 14 the experiment was terminated. Cells were sampled for CD14 and CD11b analysis on Days 7, 10 and 14.
(§3) To evaluate the fraction of cells in each cell cycle, flow cytometric analysis was performed. FACS analysis for detection of cell death by apoptosis, and cell cycle was performed.
(§4) Cells were harvested on days 7, 10 and 14 and split to allow simultaneous analysis of cell cycle and Annexin V staining. Apoptosis was determined using the Guava Nexin Assay (Millipore 4500-0450) and cells were prepared according to the manufacturer's recommendations. Samples were analyzed using the Guava EasyCyte Plus System (Millipore). Cells for cell cycle analysis were pelleted by centrifugation at 200×g for 5 minutes at 4° C., washed twice with ice cold PBS then fixed with 70% ice cold ethanol. All samples were analyzed together at end of experiment. Following fixation cells were washed with PBS and stained with the Guava cell cycle reagent (Millipore 4500-0220) for 30 minutes. Samples were analyzed using the Guava EasyCyte Plus System (Millipore).

[2] = tested on: MOLM-13 (MLL-AF9); assay: Combination proliferation study with Compound A2 (ATP/CellTiter-Glo, Chou-Talalay combination index); type: cell-based, human
Outline: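 Viability by CellTiter-Glo ATP luminescence; Fa relative to DMSO controls. Combination index by Chou-Talalay (CI<1 synergy, =1 additive, >1 antagonism).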

[3] = tested on: KOPM-88 (MLL-PTD); assay: Combination proliferation study with Compound A2; type: cell-based, human
Protocol: (§5) The HP-D300 digital dispenser (Tecan) was used to dispense compounds in a combinatorial matrix. […] Cell viability was measured via ATP content using CellTiter-Glo® (Promega).
(§6) Viability was determined using CellTiter-Glo® (Promega).

[4] = tested on: EOL-1 (MLL-PTD); assay: Combination proliferation study with Compound A2; type: cell-based, human
Protocol: as §5, §6

[5] = tested on: MOLM-13 cells; assay: Cell cycle / sub-G1 flow cytometry; type: cell-based, human; details: 156 nM Compound A2 plus 63 nM Ara-C, 10 and 14 days
Protocol: as §1, §2, §3, §4

[6] = tested on: SKM-1 (non-MLL-rearranged AML); assay: Combination proliferation study with Compound A2 (ATP/CellTiter-Glo, Chou-Talalay combination index); type: cell-based, human
Protocol: (§7) Graphs representing values of combination index (CI) versus Fractional effect (Fa) known as Fa-CI plots were generated and synergy was evaluated.
as §7, §5, §6
MV4-11 cells were maintained in IMDM supplemented with 10% fetal bovine serum. MOLM-13 and SKM-1 cells were maintained in Roswell Park Memorial Institute medium (RPMI) supplemented with 10% fetal bovine serum. They were cultured in flasks or plates in a humidified 5% CO2 atmosphere.
Proliferation studies were performed using MOLM-13, MV4-11 and SKM-1 cell lines in vitro to evaluate the cancer cell killing effect of a combination of two agents together on cell growth. Initial proliferation studies were performed to determine the IC50 values of a given compound in each cell line. The cell counts were measured by ATP quantitation using the Promega Cell Titer Glo kit and luminescence values correspond to the amount of ATP in a given well.
Compounds evaluated for synergy in the co-treatment phase were tested in a range which was bracketed around the IC50's. The compounds were plated to a 96 well plate in a matrix format which includes increasing concentrations of each drug in the combination in a constant ratio, in addition to the effect of each compound alone in the study. Cells were seeded and grown in the log-linear phase for 3 or 7 days in the cotreatment phase. Maximum and minimum inhibition (DMSO alone) controls were used in each plate to calculate fraction affected (Fa) of a test well. DMSO concentration was kept at 0.1% v/v. The drug combination analysis was performed utilizing the Chou-Talalay method. Synergy was determined using the software package Calcusyn by Biosoft. The combination index (CI) is the term used to describe the level of synergy or antagonism in a given test system. A combination index less than one indicates synergy, and a CI greater than one indicates antagonism.
The drug combination analysis was performed using the Chou-Talalay method. Graphs representing values of combination index (CI) versus Fractional effect (Fa) known as Fa-CI plots were generated and synergy was evaluated.

[7] = tested on: MV4-11 (MLL-AF4); assay: as above; type: cell-based, human; details: for Combination with Compound A2, MV4-111 MLL-AF4: Table 2, Example 3
[8] = tested on: MOLM-13 cells; assay: CD11b and CD14 differentiation marker expression by flow cytometry; type: cell-based, human; details: single agents
Protocol: as §1, §2
On day 7, 10, and 14, cells were collected for analysis. The cells were prepared by washing twice in PBS, followed by fixation in 4% formaldehyde for ten minutes at 37° C. After fixation cells were washed and blocked with blocking buffer for 10 minutes at room temperature. Cells were then incubated in presence of anti-CD14, anti-CD11b or anti-IgG antibody for 1 hour at room temperature while rotating. Cells were washed, re-suspended in PBS and 5,000 events were analyzed using ExpressPro software on the GuavaCyte Plus System.

[9] = tested on: OCI-AML-4 (MLL-ENL); assay: EPZ-5676 7-day pre-treatment, then second compound 72 hours, growth inhibition GI100 shift; primary screen and retest (Example 7); type: cell-based
Protocol: (§8) Cells were then equilibrated in incubators for 24 hours before treatment with a second compound. Treated assay plates were incubated with a second compound for 72 hours. After this time, plates were developed for endpoint analysis using ATPLite to measure ATP content, which is used as an indicator of cell viability.
(§9) Cells were then treated with a second compound for 72 hours. After this time, plates were developed for endpoint analysis using Cell Titer Glo to measure ATP content, which is used as an indicator of cell viability.
(§10) “N/D” means the GI100 of the second compound could not be determined for both conditions and “-” means not tested.
(§11) Growth Inhibition (GI) as a measure of cell viability: The cell viability of vehicle was measured at the time of dosing the second agent (T0) and after seventy-two hours (T72). […] A GI 200% represents complete death of all cells in the culture well. Compounds reaching an activity plateau of GI 200% are considered cytotoxic. GI is calculated by applying the following test and equation: […]
(§12) where T is the signal measure for a test article, V is the vehicle-treated control measure, and V0 is the vehicle control measure at time zero.

[10] = tested on: ML-2 (MLL-AF6); assay: EPZ-5676 7-day pre-treatment, then second compound 72 hours, growth inhibition GI100 shift (Example 7); type: cell-based
Protocol: as §8, §9, §10, §11, §12

[11] = tested on: SKM-1 (non-MLLr); assay: EPZ-5676 7-day pre-treatment, then second compound 72 hours, growth inhibition GI100 shift; primary screen and retest (Example 7); type: cell-based, human; details: 300 nM EPZ-5676 7-day pre-treatment
Protocol: as §8, §9, §10, §11, §12

[12] = tested on: MOLM-13 (MLL-AF9); assay: as above; type: cell-based, human
Protocol: as §8, §9, §10, §11, §12

[13] = 7 Day Cotreatment Model, Table 4
[14] = Table 2, Example 3, listed as cytarabine
[15] = 300 nM EPZ-5676 7-day pre-treatment, second compound 72 hours, ATPLite

For Nc1ccn([C@@H]2O[C@H](CO)[C@@H](O)[C@@H]2O)c(=O)n1 [Ara-C, cytarabine], the “Apoptosis, combination with Compound A2” value ([1]; 156 nM Compound A2 plus 63 nM Ara-C) was “enhance apoptosis”, the “Induction of apoptosis, single agent” value ([1]; 14 day treatment, 156 nM Compound A2 or 63 nM Ara-C) was “modest increase in apoptotic cell population” and the “Combination of Compound A2 and anti-cancer agent, MOLM-13” value ([2]; 4 + 3 Model: Compound A2 pretreatment 4 days, then co-treatment 3 days) was “Synergy (A combination index less than one indicates synergy)”. The “Combination of Compound A2 and anti-cancer agent, MOLM-13” value ([2]; 7 Day Cotreatment) was “Synergy (A combination index less than one indicates synergy)”, the “Combination with Compound A2, MOLM-13 (MLL-AF9)” value [2, 13] was “Strong Synergy” and the “Combination with Compound A2, reverse order of addition” value ([2]; MOLM-13, Ara-C 3 days, then cotreatment with Compound A2 7 days) was “Synergy”. For the same compound, the “Combination with Compound A2, reverse order of addition with Ara-C washout” value ([2]; MOLM-13, Ara-C 3 days, washed out, then Compound A2 7 days) was “Combination benefit is maintained”, the “Combination with Compound A2 when Compound A2 is washed out prior to the addition of the second agent” value (from here on “Combination … of the second agent”) ([2]; MOLM-13, pre-treatment model with Compound A2 washout) was “durable combination benefit; also recorded: synergistic anti-proliferative activity was maintained” and the “Combination with Compound A2, MOLM-13 (MLL-AF9)” value ([2]; Table 2, Example 3) was “Synergy (Drug synergy was statistically defined by CI values less than 1)”. For the same compound, the “Combination with Compound A2, MOLM-13 (MLL-AF9)” value [2, 14] was “synergistically”, the “Combination with Compound A2, KOPM-88 (MLL-PTD)” value ([3]; Table 3, Example 3) was “Synergy (Drug synergy was statistically defined by CI values less than 1)” and the “Combination with Compound A2, EOL-1 (MLL-PTD)” value ([4]; Table 3, Example 3) was “Synergy (Drug synergy was statistically defined by CI values less than 1)”. The “sub-G1 cell population, combination with Compound A2” value [5] was “significant increase in the population of sub-G1 cells”, the “Effect of Compound A2 on the antiproliferative activity of the second agent” value ([6]; SKM-1, non-MLL-rearranged, Example 5) was “did not affect” and the “Combination with Compound A2, SKM-1 AML: Non-rearranged” value [6, 14] was “did not act synergistically”. For the same compound, the “Combination of Compound A2 and anti-cancer agent, MV4-11” value ([7]; 7 Day Cotreatment) was “Synergy (A combination index less than one indicates synergy)”, the “Combination … of the second agent” value ([7]; MV4-11, pre-treatment model with Compound A2 washout) was “synergistic anti-proliferative activity was maintained” and the “Combination with Compound A2, MV4-111 MLL-AF4” value [7] was “Strong Synergy”. For the same compound, the “Combination with Compound A2, MV4-111 MLL-AF4” value ([7]; listed as cytarabine) was “synergistically”.

For COc1cccc2c1C(=O)c1c(O)c3c(c(O)c1C2=O)C[C@@](O)(C(C)=O)C[C@@H]3O[C@H]1C[C@H](N)[C@H](O)[C@H](C)O1 [Daunorubicin], the “Combination with Compound A2, MOLM-13 (MLL-AF9)” value [2] was “Synergy (key: Synergy: Drug synergy was statistically defined by CI values less than 1; Antagonistic: antagonism by CI>1; Additive: additive effect by CI equal to 1)”, the “Combination … of the second agent” value [2] was “synergistic anti-proliferative activity was maintained” and the “Combination with Compound A2, KOPM-88 (MLL-PTD)” value [3] was “Synergy (key: Synergy: Drug synergy was statistically defined by CI values less than 1; Antagonistic: antagonism by CI>1; Additive: additive effect by CI equal to 1)”. For the same compound, the “Combination with Compound A2, EOL-1 (MLL-PTD)” value [4] was “Synergy (key: Synergy: Drug synergy was statistically defined by CI values less than 1; Antagonistic: antagonism by CI>1; Additive: additive effect by CI equal to 1)”, the “Differentiation markers CD11b and CD14” value [8] was “The same effect was observed” and the “Combination with Compound A2, SKM-1 AML: Non-rearranged” value [6] was “did not act synergistically”. The “Effect of Compound A2 on the antiproliferative activity of the second agent” value [6] was “did not affect” and the “Combination … of the second agent” value [7] was “synergistic anti-proliferative activity was maintained”.

With CC(=O)Nc1cccc(-n2c(=O)n(C3CC3)c(=O)c3c(Nc4ccc(I)cc4F)n(C)c(=O)c(C)c32)c1 [Trametinib] the “Combination with Compound A2, MOLM-13 (MLL-AF9)” value [2, 13] was “Synergy (Drug synergy was statistically defined by CI values less than 1)”, the GI100 [9] was 0.009 and the “Combination with EPZ-5676, OCI-AML-4 (MLL-ENL) Primary screen” value [9, 15] was “Synergy (considered synergistic if the GI100 (Growth inhibition 100) value of the second compound decreased by 2-fold or more when EPZ-5676 was added as compared to the DMSO control)”. The “Combination with EPZ-5676, OCI-AML-4 (MLL-ENL) Retest” value ([9]; 300 nM EPZ-5676 7-day pre-treatment, second compound 72 hours, Cell Titer Glo) was “Synergy (considered synergistic if the GI100 (Growth inhibition 100) value of the second compound decreased by 2-fold or more when EPZ-5676 was added as compared to the DMSO control)”, the GI100 [10] was 0.001 and the “Combination with EPZ-5676, SKM-1 (non-MLLr) Primary screen” value ([11]; ATPLite) was “Synergy (considered synergistic if the GI100 (Growth inhibition 100) value of the second compound decreased by 2-fold or more when EPZ-5676 was added as compared to the DMSO control)”. For the same compound, the “Combination with EPZ-5676, SKM-1 (non-MLLr) Retest” value ([11]; Cell Titer Glo) was “Synergy (considered synergistic if the GI100 (Growth inhibition 100) value of the second compound decreased by 2-fold or more when EPZ-5676 was added as compared to the DMSO control)”, the GI100 [12] was 0.03 and the “Combination with EPZ-5676, MOLM-13 (MLL-AF9) Retest” value ([12]; 150 nM EPZ-5676 7-day pre-treatment, second compound 72 hours, Cell Titer Glo) was “Synergy (considered synergistic if the GI100 (Growth inhibition 100) value of the second compound decreased by 2-fold or more when EPZ-5676 was added as compared to the DMSO control)”. The “Combination with EPZ-5676, MOLM-13 (MLL-AF9) Primary screen” value [12, 15] was “Synergy (considered synergistic if the GI100 (Growth inhibition 100) value of the second compound decreased by 2-fold or more when EPZ-5676 was added as compared to the DMSO control)”.
